In patent US20190337932A1, “PROCESS FOR PREPARATION OF DACLATASVIR AND SALTS” (Gienmark Pharmaceuticals Limited, priority 2016, published 2019):
Counter-ions that a name gives are not always drawn. Each block holds one compound with its values, some of them ahead of it.

What was measured:
Type in all cases: physicochemical
[1] = Solid state stability at accelerated stress conditions (40° C./75% relative humidity); conditions: 40° C./75% RH
Protocol: In one embodiment the present invention provides daclatasvir dihydrochloride hydrate, which has enhanced stability to heat and humidity. According to the present invention, the obtained daclatasvir dihydrochloride hydrate is subjected to accelerated stability at 40° C. and relative humidity (RH) 75%.
The solid state stability of the daclatasvir dihydrochloride hydrate was determined by storing approximately 3.0 g of the sample at accelerated stress conditions (40° C./75% relative humidity) for 15 days, 1 month, 3 months, 6 months. The samples were tested by XRPD and HPLC for final purity and degradation products.

[2] = Physical stability on storing/drying at 50° C., 70° C., 100° C. (XRPD, Karl-Fisher)
Protocol: The physical stability of the daclatasvir dihydrochloride hydrate, of the present invention was determined by storing approximately 3.0 g of the sample a) at 50° C. b) at 70° C. c) at 100° C. The samples were tested by XRPD and Karl-Fisher titrator after 15 hours and 72 hours.

[3] = Transformation kinetics: slurrying in water at 25 to 30° C. for 24 hours, XRPD
Protocol: The study was carried out by slurrying 1 g of daclatasvir dihydrochloride hydrate of the present invention and literature Form N-2 of daclatasvir dihydrochloride, in water at 25 to 30° C. for 24 hours. The solid samples were then characterized by XRPD.

[4] = Hygroscopicity at 25° C/60% and 40° C/75% relative humidity (description, water content by Karl Fischer); conditions: for hygroscopicity: conclusion of the study, Tables 4 and 5
Protocol: The study was carried out by subjecting 4 g of daclatasvir dihydrochloride hydrate of the present invention and literature Form N-2 of daclatasvir dihydrochloride to 25′C/60% relative humidity and 40′C/75% relative humidity. About 100 mg of sample was withdrawn each time at timely interval of 4, 12, 24 and 48 hours from the conditions is and tested for description and water content by Karl Fischer.

[5] = Photostability, light of 4000 lux at 25° C. for 2 weeks
Protocol: This study was carried out in a photostability testing chamber by subjecting daclatasvir dihydrochloride hydrate of the present invention to irradiation with light of 4000 lux at 25° C. for 2 weeks and the samples were tested for XRPD and stability.

[6] = Dynamic vapor system sorption/desorption isotherms; conditions: 25° C., relative humidity of 40% to 90%
Protocol: Sorption/desorption isotherms were measured using the Dynamic vapor System. Measurement was carried out at 25° C. and Relative humidity of 40% to 90%.

[7] = listed as literature form N-2, dihydrochloride

HPLC Purity (%) ([1]; after 1 month): 99.9%
XRPD ([1]; after 1 month): Same as initial
HPLC Purity (%) ([1]; after 3 months): 99.89%
XRPD ([1]; after 3 months): Same as initial
HPLC Purity (%) ([1]; after 6 months): 99.88%
XRPD ([1]; after 6 months): Same as initial
HPLC Purity (%) ([1]; after 15 days): 99.9%
XRPD ([1]; after 15 days): Same as initial
chemical and physical stability ([1]; accelerated stability): chemically and physically very stable
degradation in HPLC ([1]; accelerated stability): no degradation
increase in the moisture content ([1]; accelerated stability): no substantial increase
XRPD pattern ([1]; accelerated stability, dihydrochloride hydrate): remains the same as initial
KF ([2]; Drying at 50° C. for 15 hours): 8.03%
KF ([2]; Drying at 50° C. for 72 hours): 8.12%
Key XRPD peaks after drying ([2]; Drying at 50° C., 70° C. (15 and 72 hours) and 100° C. (15 hours), one merged cell): There was no change in XRPD
KF ([2]; Drying at 70° C. for 15 hours): 8.03%
KF ([2]; Drying at 70° C. for 72 hours): 8.02%
KF ([2]; Drying at 100° C. for 15 hours): 8%
KF ([2]; Initial form): 7.99%
change in form ([2]; drying and humid conditions): no change in form
Description ([4]; 25° C./60% relative humidity, 4 hours): Creamish
Moisture content by KF ([4]; 25° C./60% relative humidity, 4 hours, dihydrochloride hydrate): 8.77%
Description ([4]; 25° C./60% relative humidity, 12 hours): Creamish
Moisture content by KF ([4]; 25° C./60% relative humidity, 12 hours, dihydrochloride hydrate): 8.86%
Description ([4]; 25° C./60% relative humidity, 24 hours): Creamish
Moisture content by KF ([4]; 25° C./60% relative humidity, 24 hours, dihydrochloride hydrate): 8.89%
Description ([4]; 25° C./60% relative humidity, 48 hours): Creamish
Moisture content by KF ([4]; 25° C./60% relative humidity, 48 hours, dihydrochloride hydrate): 8.91%
Description ([4]; 25° C./60% relative humidity, Initial): Creamish
Moisture content by KF ([4]; 25° C./60% relative humidity, Initial, dihydrochloride hydrate): 8.76%
Description ([4]; 40° C./75% relative humidity, 4 hours): Creamish
Moisture content by KF ([4]; 40° C./75% relative humidity, 4 hours, dihydrochloride hydrate): 8.76%
Description ([4]; 40° C./75% relative humidity, 12 hours): Creamish
Moisture content by KF ([4]; 40° C./75% relative humidity, 12 hours, dihydrochloride hydrate): 8.81%
Description ([4]; 40° C./75% relative humidity, 24 hours): Creamish
Moisture content by KF ([4]; 40° C./75% relative humidity, 24 hours, dihydrochloride hydrate): 8.86%
Description ([4]; 40° C./75% relative humidity, 48 hours): Creamish
Moisture content by KF ([4]; 40° C./75% relative humidity, 48 hours, dihydrochloride hydrate): 8.92%
Description ([4]; 40° C./75% relative humidity, Initial): Creamish
Moisture content by KF ([4]; 40° C./75% relative humidity, Initial, dihydrochloride hydrate): 8.76%
hygroscopicity ([4]; dihydrochloride hydrate): non-hygroscopic
XRPD pattern [5]: remains same as initial
degradation in HPLC [5]: no degradation
Adsorption desorption profile [6]: reversible
Structure (SMILES): COC(=O)N[C@H](C(=O)N1CCC[C@H]1c1ncc(-c2ccc(-c3ccc(-c4cnc([C@@H]5CCCN5C(=O)[C@@H](NC(=O)OC)C(C)C)[nH]4)cc3)cc2)[nH]1)C(C)C [daclatasvir dihydrochloride hydrate]
Result (form by XRPD) ([3]; dihydrochloride hydrate): No discernible form conversion or dissociation

Result (form by XRPD) ([3]; listed as Form-N2, dihydrochloride): Converted to crystalline daclatasvir
Moisture content by KF ([4]; 25° C./60% relative humidity, 4 hours, dihydrochloride): 2.45%
Moisture content by KF ([4]; 25° C./60% relative humidity, 12 hours, dihydrochloride): 2.47%
Moisture content by KF ([4]; 25° C./60% relative humidity, 24 hours, dihydrochloride): 2.44%
Moisture content by KF ([4]; 25° C./60% relative humidity, 48 hours, dihydrochloride): 2.47%
Moisture content by KF ([4]; 25° C./60% relative humidity, Initial, dihydrochloride): 2.12%
Moisture content by KF ([4]; 40° C./75% relative humidity, 4 hours, dihydrochloride): 2.52%
Moisture content by KF ([4]; 40° C./75% relative humidity, 12 hours, dihydrochloride): 2.54%
Moisture content by KF ([4]; 40° C./75% relative humidity, 24 hours, dihydrochloride): 2.65%
Moisture content by KF ([4]; 40° C./75% relative humidity, 48 hours, dihydrochloride): 2.77%
Moisture content by KF ([4]; 40° C./75% relative humidity, Initial, dihydrochloride): 2.12%
Structure (SMILES): COC(=O)N[C@H](C(=O)N1CCC[C@H]1c1ncc(-c2ccc(-c3ccc(-c4cnc([C@@H]5CCCN5C(=O)[C@@H](NC(=O)OC)C(C)C)[nH]4)cc3)cc2)[nH]1)C(C)C [daclatasvir dihydrochloride, reference compound]
Result (form by XRPD) [3, 7]: did not retain its form and was converted to the daclatasvir dihydrochloride hydrate of the present invention
hygroscopicity [4, 7]: more hygroscopic than the form of the present invention
